Laboratory results reported in paper PMC4279419, “Angiostatic, tumor inflammatory and anti-tumor effects of CXCL4^47–70 and CXCL4L1^47–70 in an EGF-dependent breast cancer model” (Oncotarget, 2014).
Where no end group is shown, it is not given here. The star is where a group is joined. Biotin = O=C1N[C@H]2[C@H](CS[C@H]2CCCCC(=O)*)N1

Key:
[1] = test system: CXCR3A; assay: Calcium signaling in CXCR3A-transfectants; format: cell-based; details: CXCL10 5 ng/ml after prestimulation with buffer; CHO/CXCR3A; fura 2
From the text: We further tried to reveal the mode of action of CXCL4^47–70 and CXCL4L1^47–70. First, we excluded that either peptide still binds/activates one of the CXCR3 isoforms, the receptors for intact CXCL4 and CXCL4L1. […]
inhibit signaling by intact CXCL10. To study interaction of CXCL447–70 and CXCL4L147–70 with CXCR3A, CHO cells stably transfected with CXCR3A were loaded with the fluorescent dye fura 2 (Struyf et al. J. Immunol. 2009, 182:666). Changes in the intracellular Ca2+ concentrations ([Ca2+]i) in response to CXCL447–70 or CXCL4L147–70 treatment were monitored using a spectrofluorometer. The line in the spectra indicates the fluorescence intensity ratio (i.e. the fluorescence intensity measured after excitation at 340 nm divided by the fluorescence intensity measured after excitation at 380 nm). The results shown (one representative experiment out of three) illustrate a desensitization experiment, in which CHO/CXCR3A cells were stimulated first with a peptide (2 µg/ml) and 100 s later with intact CXCL10 […]
peptides induced a rise in [Ca2+]i. When the cells were stimulated with 5 ng/ml intact CXCL10 100 s after peptide treatment, the response […]
interact with CXCR3A. Arrows indicate the time of addition of the stimulus.
(also on this page, place not known: www.impactjournals.com/oncotarget/ Oncotarget, Supplementary Materials 2014 CXCL4 47–70 CXCL4L1 47–70 CXCL4 47–70 CXCL4L1 47–70 CXCL4 47–70) […]

[2] = test system: human retinal microvascular endothelial cells (HMVEC); assay: HMVEC MTT proliferation assay; format: cell-based; details: EGF 3 ng/ml; control medium PI=1; 3 to 4 days; MTT OD570–630; mean ± s.e.m., n=7
Procedure: (§1) First, HMVEC and HLEC were seeded at 5 × 10^3 cells/well in EBM-2 + 1% FCS in a 96-well plate, whereas MDA-MB-231 were starved of growth factors overnight by replacing their growth medium with DMEM (serum-free) prior to seeding the tumor cells at 15 × 10^2 cells/well in DMEM + 1% FCS. As for the rest of the assay, the same protocol applies to all cells. Once adherent, cells were incubated with different concentrations of the peptides CXCL4^47–70 and CXCL4L1^47–70 as single stimuli or in combination with recombinant human EGF (3 ng/ml; R&D Systems, Minneapolis, MN) at 37°C/5% CO2. All conditions were tested in triplicate or quadruplicate. After 3 to 4 days, stimulation medium was removed and a sterile MTT solution was added [0.04 g/100 ml thiazolyl blue (Sigma-Aldrich, St. Louis, MO) in 20% PBS/80% RPMI without phenol red (Lonza)] for 3 to 4 hours. The formed formasan crystals were dissolved by replacing the MTT solution with acidic propanol (0.04 M HCl, 0.1% (v/v) Nondet P-40 in absolute isopropanol) and shaking the plate, shielded from light, for 10 minutes. Optical density (OD) was determined at 570 nm and 630 nm. The obtained ODs were processed to proliferation indexes (PI), expressed relative to appropriate buffer controls, i.e. ΔOD570–630X over ΔOD570–630CO.

[3] = test system: p21 in HMVEC; assay: Intracellular p21 content in HMVEC (ELISA); format: cell-based, human; details: EGF 20 ng/ml; 15 h; p21:total protein; mean ± s.e.m., n=9; p<0.001 versus control
Procedure: Signaling assays were slightly adapted to the signaling molecules of interest in this study. HMVEC were stimulated with EGF (20 ng/ml) as a single stimulus or in combination with the peptides CXCL4^47–70 and CXCL4L1^47–70 (0.3 to 10 μg/ml) in order to evaluate their impact on the cell cycle-arresting p21. After 15 hours, the cells were washed three times with ice-cold PBS to stop the stimulation and lysis buffer [1 mM EDTA, 0.5% (v/v) Triton-X, 10 mM NaF, 150 mM NaCl, 1 mM DTT in PBS; pH 7.2–7.4] supplemented with a protease inhibitor cocktail (Sigma) was added. Cell residue was removed from the collected lysates by centrifugation (4°C, 10 min, 1666g). Lastly, the intracellular p21 content was determined by DuoSet® IC ELISA (cat n° DYC1047, R&D Systems) while, in parallel, total protein content was measured in a bicinchoninic acid (BCA) protein assay (Pierce, Rockford, IL).

[4] = test system: human dermal lymphatic microvascular endothelial cells (HLEC); assay: HLEC MTT proliferation assay; format: cell-based; details: data not shown
Procedure: as §1

[5] = target: T1, recombinant human CCL5 (human, UniProt P13501 24-91); assay: ELISA; 50 ng/ml CCL5 in PBS coated overnight at room temperature on high protein-binding ELISA plates, blocked with 0.1% casein; dilution curve of biotinylated peptide at 37 °C; detected with peroxidase-conjugated streptavidin, OD450; details: both partners purified
T1 construct: CCL5, human, recombinant protein; source: bought: PeproTech
T1 sequence (looked up): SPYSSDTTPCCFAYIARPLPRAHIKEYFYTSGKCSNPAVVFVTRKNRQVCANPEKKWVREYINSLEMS

[6] = test system: p21; details: EGF-stimulated endothelial cells; cited from earlier work
From the text: Previously, the EGF-induced reduction of the cyclin-dependent kinase inhibitor p21 was described. […] Therefore, we studied the effects of chemokine-derived peptides on p21 levels and, with it, their ability to arrest the cell cycle. Evaluation of the p21 content in HMVEC did confirm CXCL4^47–70 and CXCL4L1^47–70 to counteract the tendency of EGF to reduce p21 (Figure 2). […] Ad ...

[7] = test system: monocyte; details: through heteromultimerization with CCL5; cited from earlier work
From the text: Concerning direct cytokine ligand interactions, both positive and negative interactions have been described for intact CXCL4 [33, 34, 37, 38] and its carboxy-terminal peptide. […] In this study we chose two cytokines important in our breast cancer model and verified interaction with CXCL4^47–70 and CXCL4L1^47–70: EGF as g ...

[8] = test system: endothelial cell; details: compared with CXCL4; cited from earlier work
From the text: Angiogenesis, the formation of an ever more branching network of blood vessels from a pre-existing vascular network, has been established as a requisite for successful tumor growth and cancer progression. Anti-angiogenic therapy thus offers a promising approach to tackle one of the leading causes of mortality worldwide. However, classic anti-angiogenic therapeutics have encountered important hurdles and interest in less obvious targets, including inflammatory mediators such as the chemokines, increases. These chemotactic cytokines play an important role in immunity as they ...

## CXCL10: intact CXCL10, CXCR3 ligand [reference compound]
[1]
  calcium response to CXCL10: significant increase in [Ca2+]i

## EGF: recombinant human EGF (R&D Systems) [reference compound]
[2]
  Proliferation index (PI), EGF alone: 1.42 ± 0.08
[3]
  intracellular p21 relative to control (100%), EGF alone: 75.82 ± 3.69%
[4]
  HLEC proliferation response to EGF: not responsive to EGF-stimulation

B1: NH2-terminally biotinylated CXCL4^47–70 peptide (peptide, UniProt P02776 78-101, looked up)
peptide: Biotin-NGRKICLDLQAPLYKKIIKKLLES
notes: CXCL4/Platelet factor-4 (PF-4), human, last 24 amino acids (residues 47-70) of the 70 amino acid-long mature protein; has Pro58, Lys66, Leu67; numbers count on: the mature protein; The functional assays (chemotaxis, calcium) used the peptide without mention of biotin; also called carboxy-terminal peptide of CXCL4/Platelet factor-4 (PF-4); source: synthetic peptide (Fmoc chemistry, purified by …)
[5]
  binding result: binds

B2: CXCL4: natural human CXCL4 isolated from stimulated platelets; 70 amino acid-long mature protein (protein, UniProt P02776 32-101, looked up)
Platelet factor 4: EAEEDGDLQCLCVKTTSQVRPRHITSLEVIKAGPHCPTAQLIATLKNGRKICLDLQAPLYKKIIKKLLES
[6]
  effect on EGF-induced p21 downregulation: appeared to interfere with this p21 downregulation
[7]
  effect on CCL5 monocyte chemotactic activity: enhances monocyte chemotactic activity of CCL5

B3: CXCL4L1: recombinant human CXCL4L1 isolated from baculovirus-infected Sf9 cells (protein, UniProt P10720 31-104, looked up)
Platelet factor 4 variant: FARAEAEEDGDLQCLCVKTTSQVRPRHITSLEVIKAGPHCPTAQLIATLKNGRKICLDLQALLYKKIIKEHLES
[8]
  inhibition of CXCL8- and FGF2-induced endothelial cell chemotaxis: more efficiently than CXCL4
